Here are results for nine compounds from patent publication US11261180B2, “Cyclohexyl acid isoxazole azoles as LPA antagonists” (Bristol-Myers Squibb Company, priority 2017, dated 2022).

The target in assay [1] is T1, LPA1 (Homo sapiens, UniProt Q92633). Further details: host or cells: IPF patients (in vivo). Particulars: 26-week clinical trial, IPF patients; cited from earlier work.
Assay [2] deals with T1, LPA1. The assay can be described thus: LPA1 functional antagonist assay (calcium flux in CHO cells overexpressing human LPA1). Type of assay: cell-based. Further details: expressed in transfected cells; host or cells: Chinese hamster ovary (CHO) cells. To be noted: CHO cells overexpressing human LPA1, calcium flux induced by 10 nM LPA; read-out: hLPA1 IC50. As for the experimental part:
The effectiveness of compounds of the present invention as LPA1 inhibitors can be determined in an LPA1 functional antagonist assay as follows:
Chinese hamster ovary cells overexpressing human LPA1 were plated overnight (15,000 cells/well) in poly-D-lysine coated 384-well microplates (Greiner bio-one, Cat #781946) in DMEM/F12 medium (Gibco, Cat #11039). Following overnight culture, cells were loaded with calcium indicator dye (AAT Bioquest Inc, Cat #34601) for 30 minutes at 37° C. The cells were then equilibrated to room temperature for 30 minutes before the assay. Test compounds solubilized in DMSO were transferred to 384 well non-binding surface plates (Corning, Cat #3575) using the Labcyte Echo acoustic dispense and diluted with assay buffer [[…] with calcium/magnesium (Gibco Cat #14025-092), 20 mM HEPES (Gibco Cat #15630-080) and 0.1% fatty acid free BSA (Sigma Cat #A9205)] to a final concentration of 0.5% DMSO. Diluted compounds were added to the cells by FDSS6000 (Hamamatsu) at final concentrations ranging from 0.08 nM to 5 μM. and were then incubated for 20 min at room temperature at which time LPA (Avanti Polar Lipids Cat #857130C) was added at final concentrations of 10 nM to stimulate the cells. The compound IC50 value was defined as the concentration of test compound which inhibited 50% of the calcium flux induced by LPA alone. IC50 values were determined by fitting data to a 4-parameter logistic equation (GraphPad Prism, San Diego Calif.).
(In general: Calcium assays in cells follow changes in intracellular calcium, usually with a dye or a luminescent sensor.)

The test system of the next assay is nerve-injured mice. To be noted: pretreatment; cited from earlier work.
The next assay deals with CTGF. To be noted: MCT cells, co-treatment with LPA; cited from earlier work.
In assay [3] the test system is human foetal lung fibroblasts. To be noted: cited from earlier work.
The subject of assay [4] is pancreatic cancer cell lines. To be noted: cited from earlier work.
The test system of assay [5] is highly peritoneal metastatic pancreatic cancer cell line. To be noted: cited from earlier work.
The next assay deals with UUO mice. To be noted: compared with LPA1 (-/-) mice; cited from earlier work.

T1 sequence (Q92633 whole entry): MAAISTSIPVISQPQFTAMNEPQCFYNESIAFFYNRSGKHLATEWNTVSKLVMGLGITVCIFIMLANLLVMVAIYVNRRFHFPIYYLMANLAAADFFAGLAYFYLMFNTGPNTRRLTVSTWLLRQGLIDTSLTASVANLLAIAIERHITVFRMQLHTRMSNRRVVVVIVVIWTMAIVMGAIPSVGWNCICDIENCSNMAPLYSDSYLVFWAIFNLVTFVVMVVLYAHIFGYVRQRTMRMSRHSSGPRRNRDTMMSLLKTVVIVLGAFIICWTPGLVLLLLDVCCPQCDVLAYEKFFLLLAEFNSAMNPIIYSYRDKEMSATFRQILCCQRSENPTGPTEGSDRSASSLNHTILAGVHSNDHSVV

In the case of `Cc1noc(-c2ccc(-c3ccc(C4(C(=O)O)CC4)cc3)cc2)c1NC(=O)O[C@H](C)c1ccccc1` [BMS-986020], the “rate of FVC (forced vital capacity) decline” value at LPA1 [1] is recorded as “significantly reduce the rate of FVC (forced vital capacity) decline”. For orientation: IC50 means the concentration that inhibits the measured activity by half. `CCCc1nnc(NCc2c(C)noc2-c2ccc(O[C@H]3CCC[C@H](C(=O)O)C3)cn2)s1` [Example 1, (1S,3S)-3-((6-(3-methyl-4-(((5-propyl-1,3,4-thiadiazol-2-yl)amino)methyl)isoxazol-5-yl)pyridin-3-yl)oxy)cyclohexane-1-carboxylic Acid]: at LPA1 [2], the IC50 turned out to be 2.47 µM.

For `Cc1noc(-c2ccc(O[C@H]3CCC[C@H](C(=O)O)C3)cn2)c1CNc1ncc(-c2ccccc2)s1` [Example 3, (1S,3S)-3-((6-(3-methyl-4-(((5-phenyl-thiazol-2-yl)amino)methyl)isoxazol-5-yl)pyridin-3-yl)oxy) cyclohexane-1-carboxylic acid], the IC50 on LPA1 [2] was determined as 0.712 µM. `Cc1noc(-c2ccc(O[C@H]3CCC[C@H](C(=O)O)C3)cn2)c1CNc1nc(-c2ccccc2)ns1` [Example 4, (1S,3S)-3-((6-(3-methyl-4-(((3-phenyl-1,2,4-thiadiazol-5-yl)amino)methyl)isoxazol-5-yl)pyridin-3-yl)oxy) cyclohexane-1-carboxylic acid]: the IC50 at LPA1 [2] was 0.153 µM. The same measure, in the same setting: then `Cc1nc(NCc2c(C)noc2-c2ccc(O[C@H]3CCC[C@H](C(=O)O)C3)cn2)sc1-c1ccccc1` [Example 5], with 0.041 µM; and `Cc1noc(-c2ccc(O[C@H]3CCC[C@H](C(=O)O)C3)cn2)c1CNc1ncc(C(F)(F)F)s1` [Example 6, (1S,3S)-3-((6-(3-methyl-4-(((5-(trifluoromethyl)thiazol-2-yl)amino)methyl)isoxazol-5-yl)pyridin-3-yl)oxy)cyclohexane-1-carboxylic acid], with 0.486 µM. `Cc1nc(-c2onc(C)c2CNc2ncn(-c3ccccc3)n2)ccc1O[C@H]1CCC[C@H](C(=O)O)C1` [Example 7]: the IC50 at LPA1 [2] was 0.029 µM. For `C[C@@H](N)[C@H]1CC[C@H](C(=O)Nc2ccncc2)CC1` [Example Y-27632], in the assay with nerve-injured mice, the allodynia and hyperalgesia result was “completely abolished”. Turning to `Cc1noc(-c2ccc(CSCCC(=O)O)cc2)c1NC(=O)OC(C)c1ccccc1Cl` (centres unmarked) [Ki16425], the “LPA induction of CTGF expression” value in the assay with CTGF was “almost completely suppressed”. In assay [3], the “chemotaxis of human foetal lung fibroblasts induced by BAL from IPF patients” value was “blocked” and the “increased fibroblast chemotactic activity in bronchoalveolar lavage samples of IPF subjects” value was “inhibited”. The “in vitro migration in response to LPA and peritoneal fluid (ascites) from pancreatic cancer patients” value in assay [4] is “effectively blocked”. Further, the “LPA-induced and ascites-induced invasion activity” value in assay [5] is “blocked”. For the same compound, in the assay with UUO mice, the “renal fibrosis profile in UUO mice” value is “closely resembled the profile of LPA1 (−/−) mice”.
